Results on 35 compounds are retold here after patent US9493444B2 (Merck Patent GmbH, priority 2012, dated 2016).

Each structure is given as a SMILES string.

The assay has as its system Wnt pathway (TCF-dependent transcription in HEK293 luciferase reporter cell line with ER-DSH construct). In words: Cellular assay for Wnt pathway activity (luciferase reporter). The class given is cell-based. Conditions: Homo sapiens; Wnt pathway inhibition, HEK293 luciferase reporter cells (ER-DSH, TCF promoter), 24 hours incubation, estrogen-induced. In short, it runs like this:
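Compounds (30 μM down to 1 nM) were incubated 24 h on cells induced for TCF-dependent transcription with estrogen. Luciferase activity was read by luminescence, normalized to untreated vehicle control, and fitted for IC50.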
In general terms: A reporter such as luciferase makes a cellular process visible.
For orientation: IC50 means the concentration that gives 50% inhibition. `CC(=O)N(C)CCCc1cncc(Oc2ccc(-c3ccncc3C#N)cc2F)n1` [Compound 266, N-(3-{6-[4-(3-Cyano-pyridin-4-yl)-2-fluoro-phenoxy]-pyrazin-2-yl}-propyl)-N-methyl-acetamide] yielded an IC50 below 200 nM.

For `CC(=O)N(C)CCCc1cncc(Oc2ccc(-c3ccc(N4CCOCC4)nc3)cc2F)n1` [Compound 267, N-(3-{6-[2-Fluoro-4-(6-morpholin-4-yl-pyridin-3-yl)-phenoxy]-pyrazin-2-yl}-propyl)-N-methyl-acetamide], the half-inhibitory concentration (IC50) was in the range of 200 to 1000 nM.

The compound `CC(=O)N(C)CCCc1cncc(Oc2ccc(-c3ccc(C)cn3)cc2F)n1` [Compound 268, N-(3-{6-[2-Fluoro-4-(5-methyl-pyridin-2-yl)-phenoxy]-pyrazin-2-yl}-propyl)-N-methyl-acetamide] registered an IC50 below 200 nM.

The compound `CC(=O)N(C)CCCc1cncc(Oc2ccc(-c3cnc(N)cn3)cc2F)n1` [Compound 269, N-(3-{6-[4-(5-Amino-pyrazin-2-yl)-2-fluoro-phenoxy]-pyrazin-2-yl}-propyl)-N-methyl-acetamide] returned an IC50 of 200 to 1000 nM.

As to `CC(=O)N(C)CCCc1cncc(Oc2ccc(-c3ccncc3)cc2F)n1` [Compound 270, N-{3-[6-(2-Fluoro-4-pyridin-4-yl-phenoxy)-pyrazin-2-yl]-propyl}-N-methyl-acetamide], the concentration for half-maximal inhibition (IC50) lay within 200 to 1000 nM.

Regarding `CC(=O)N(C)CCN(C)c1cncc(Oc2ccc(-c3ccc(CCNC(=O)CCCCCNC(=O)CCCCC4SCC5NC(=O)NC54)cc3)cc2)n1` (centres unmarked) [Compound 271, 6-[5-(2-Oxo-hexahydro-thieno[3,4-d]imidazol-6-yl)-pentanoyl-amino]-hexanoic acid {2-[4′-(6-{[2-(acetyl-methyl-amino)-ethyl]-methyl-amino}-pyrazin-2-yloxy)-biphenyl-4-yl]-ethyl}-amide], the IC50 is below 200 nM.

The compound `CC(=O)N(C)CCN(C)c1cncc(Oc2ccc(-c3ccc(CN(C)C(=O)CCCCCNC(=O)CCCCC4SCC5NC(=O)NC54)nc3)cc2)n1` (centres unmarked) [Compound 272, 6-[5-(2-Oxo-hexahydro-thieno[3,4-d]imidazol-6-yl)-pentanoyl-amino]-hexanoic acid {5-[4-(6-{[2-(acetyl-methyl-amino)-ethyl]-methyl-amino}-pyrazin-2-yloxy)-phenyl]-pyridin-2-ylmethyl}-methyl-amide] had an IC50 below 200 nM.

Regarding `CC(=O)N(C)CCN(C)c1cncc(Oc2ccc(-c3ccc(N=[N+]=[N-])cn3)cc2)n1` [Compound 273, N-[2-({6-[4-(5-Azido-pyridin-2-yl)-phenoxy]-pyrazin-2-yl}-methyl-amino)-ethyl]-N-methyl-acetamide], the IC50 is below 200 nM.

Regarding `CC(=O)N(C)CCCc1cncc(Oc2ccc(-c3ccc([N+](=O)[O-])cn3)cc2F)n1` [Compound 274, N-(3-{6-[2-Fluoro-4-(5-nitro-pyridin-2-yl)-phenoxy]-pyrazin-2-yl}-propyl)-N-methyl-acetamide], the concentration for half-maximal inhibition (IC50) fell in the range of 1000 to 10000 nM.

The compound `CC(=O)N(C)CCNc1cncc(Oc2ccc(-c3cncc(S(C)(=O)=O)c3)cc2)n1` [Compound 275, N-(2-{6-[4-(5-Methane-sulfonyl-pyridin-3-yl)-phenoxy]-pyrazin-2-ylamino}-ethyl)-N-methyl-acetamide] came in with an IC50 of 1000 to 10000 nM.

Turning to `CC(=O)N(C)CCNc1cncc(Oc2ccc(-c3ccc(C#N)nc3)cc2)n1` [Compound 276, N-(2-{6-[4-(6-Cyano-pyridin-3-yl)-phenoxy]-pyrazin-2-ylamino}-ethyl)-N-methyl-acetamide], the half-inhibitory concentration (IC50) was 200 to 1000 nM.

Regarding `O=C1OCCN1CCNc1cncc(Oc2ccc(F)cc2)n1` [Compound 277, 3-{2-[6-(4-Fluoro-phenoxy)-pyrazin-2-ylamino]-ethyl}-oxazolidin-2-one], the IC50 fell in the range of 1000 to 10000 nM.

`O=C1NCCN1CCNc1cncc(Oc2ccc(F)cc2)n1` [Compound 278, 1-{2-[6-(4-Fluoro-phenoxy)-pyrazin-2-ylamino]-ethyl}-imidazolidin-2-one] returned an IC50 of 200 to 1000 nM.

In turn, `CC(=O)N(C)CCN(C)c1cncc(Oc2ccc(-c3cccnc3)c(F)c2F)n1` [Compound 279, N-(2-{[6-(2,3-Difluoro-4-pyridin-3-yl-phenoxy)-pyrazin-2-yl]-methyl-amino}-ethyl)-N-methyl-acetamide] yielded an IC50 below 200 nM.

The compound `CC(=O)N(C)CCN(C)c1cncc(Oc2ccc(-c3ccc(N)nc3)c(F)c2F)n1` [Compound 280, N-[2-({6-[4-(6-Amino-pyridin-3-yl)-2,3-difluoro-phenoxy]-pyrazin-2-yl}-methyl-amino)-ethyl]-N-methyl-acetamide] returned an IC50 below 200 nM.

`CN(CCN(C)S(C)(=O)=O)c1cncc(Oc2ccc(F)cc2)n1` [Compound 281, N-(2-{[6-(4-Fluoro-phenoxy)-pyrazin-2-yl]-methyl-amino}-ethyl)-N-methyl-methane-sulfonamide]: the IC50 lay within 1000 to 10000 nM.

For `CC(=O)N(C)CCCc1cncc(Oc2ccc(-c3ccc(N)cn3)cc2F)n1` [Compound 282, N-(3-{6-[4-(5-Amino-pyridin-2-yl)-2-fluoro-phenoxy]-pyrazin-2-yl}-propyl)-N-methyl-acetamide], the IC50 was below 200 nM.

The compound `CN(CCC1(O)CCCC1)c1cncc(Oc2ccc(F)cc2)n1` [Compound 283, 1-(2-{[6-(4-Fluoro-phenoxy)-pyrazin-2-yl]-methyl-amino}-ethyl)-cyclopentanol] had a half-inhibitory concentration (IC50) of 200 to 1000 nM.

`CN(CCN(C)c1cncc(Oc2ccc(F)cc2)n1)C(=O)CN` [Compound 284, 2-Amino-N-(2-{[6-(4-fluoro-phenoxy)-pyrazin-2-yl]-methyl-amino}-ethyl)-N-methyl-acetamide] displayed an IC50 of 1000 to 10000 nM.

With `CN(CCN(C)c1cncc(Oc2ccc(F)cc2)n1)C(=O)CN(C)C(=O)OC(C)(C)C` [Compound 285, {[(2-{[6-(4-Fluoro-phenoxy)-pyrazin-2-yl]-methyl-amino}-ethyl)-methyl-carbamoyl]-methyl}-methyl-carbamic acid tert-butyl ester], the IC50 lay in the range of 1000 to 10000 nM.

Compound `CN(CCN(C)c1cncc(Oc2ccc(F)cc2)n1)C(=O)CO` [Compound 286, N-(2-{[6-(4-Fluoro-phenoxy)-pyrazin-2-yl]-methyl-amino}-ethyl)-2-hydroxy-N-methyl-acetamide] returned an IC50 below 200 nM.

For the compound `CC(=O)N(C)CCN(C)c1cncc(Oc2ccc(-c3ccc(N4CCN(C(=O)CCCCCNC(=O)CCCCC5SCC6NC(=O)NC65)CC4)nc3)cc2)n1` (centres unmarked) [Compound 287, 5-(2-Oxo-hexahydro-thieno[3,4-d]imidazol-6-yl)-pentanoic acid [6-(4-{5-[4-(6-{[2-(acetyl-methyl-amino)-ethyl]-methyl-amino}-pyrazin-2-yloxy)-phenyl]-pyridin-2-yl}-piperazin-1-yl)-6-oxo-hexyl]-amide], the IC50 is below 200 nM.

`CC(=O)N(C)CCNc1cncc(Oc2ccc(-c3ccnc(C#N)c3)cc2)n1` [Compound 288, N-(2-{6-[4-(2-Cyano-pyridin-4-yl)-phenoxy]-pyrazin-2-ylamino}-ethyl)-N-methyl-acetamide]: the IC50 was in the range of 1000 to 10000 nM.

As to `CC(=O)NCC(C)Nc1cncc(Oc2ccc(F)cc2)n1` (centres unmarked) [Compound 289, N-{2-[6-(4-Fluoro-phenoxy)-pyrazin-2-ylamino]-propyl}-acetamide], the IC50 lay within 1000 to 10000 nM.

For the compound `C=CC(=O)N(C)CCN(C)c1cncc(Oc2ccc(F)cc2)n1` [Compound 290, N-(2-{[6-(4-Fluoro-phenoxy)-pyrazin-2-yl]-methyl-amino}-ethyl)-N-methyl-acrylamide], the IC50 lay in the range of 1000 to 10000 nM.

On to `Nc1cnc(-c2ccc(Oc3cncc(NCCN4CCCCC4=O)n3)cc2)cn1` [Compound 291, 1-(2-{6-[4-(5-Amino-pyrazin-2-yl)-phenoxy]-pyrazin-2-ylamino}-ethyl)-piperidin-2-one], for which the IC50 is below 200 nM.

`O=C1CCCCN1CCNc1cncc(Oc2ccc(-c3ccc(CO)nc3)cc2)n1` [Compound 292, 1-(2-{6-[4-(6-Hydroxy-methyl-pyridin-3-yl)-phenoxy]-pyrazin-2-ylamino}-ethyl)-piperidin-2-one]: the IC50 was below 200 nM.

In turn, `CC(=O)N(C)CCNc1cncc(Oc2ccc(-c3ccc(CO)cn3)cc2)n1` [Compound 293, N-(2-{6-[4-(5-Hydroxy-methyl-pyridin-2-yl)-phenoxy]-pyrazin-2-ylamino}-ethyl)-N-methyl-acetamide] registered a 50% inhibitory concentration (IC50) of 200 to 1000 nM.

Consider `CC(=O)N(C)CCNc1cncc(Oc2ccc(-c3ccc(S(N)(=O)=O)cn3)cc2)n1` [Compound 294, N-Methyl-N-(2-{6-[4-(5-sulfamoyl-pyridin-2-yl)-phenoxy]-pyrazin-2-ylamino}-ethyl)-acetamide], for which the IC50 lay in the range of 1000 to 10000 nM.

Compound `O=C1CCCCN1CCNc1cncc(Oc2ccc(-c3ccc(N4CCOCC4)nc3)cc2)n1` [Compound 295, 1-(2-{6-[4-(6-Morpholin-4-yl-pyridin-3-yl)-phenoxy]-pyrazin-2-ylamino}-ethyl)-piperidin-2-one] displayed an IC50 below 200 nM.

For `N#Cc1cnccc1-c1ccc(Oc2cncc(NCCN3CCCCC3=O)n2)cc1` [Compound 296, 4-(4-{6-[2-(2-Oxo-piperidin-1-yl)-ethylamino]-pyrazin-2-yloxy}-phenyl)-nicotinonitrile], the IC50 lay in the range of 200 to 1000 nM.

Turning to `Cc1ccc(-c2ccc(Oc3cncc(NCCC(N)=O)n3)cc2)nc1` [Compound 298, 3-{6-[4-(5-Methyl-pyridin-2-yl)-phenoxy]-pyrazin-2-ylamino}-propionamide], the IC50 was in the range of 200 to 1000 nM.

For `NC(=O)CCNc1cncc(Oc2ccc(-c3ccc(CO)nc3)cc2)n1` [Compound 299, 3-{6-[4-(6-Hydroxy-methyl-pyridin-3-yl)-phenoxy]-pyrazin-2-ylamino}-propionamide], the IC50 was in the range of 1000 to 10000 nM.

As to `CS(=O)(=O)c1cncc(-c2ccc(Oc3cncc(NCCC(N)=O)n3)cc2)c1` [Compound 300, 3-{6-[4-(5-Methane-sulfonyl-pyridin-3-yl)-phenoxy]-pyrazin-2-ylamino}-propionamide], the IC50 is at least 10000 nM.

`NC(=O)CCNc1cncc(Oc2ccc(-c3cnc(N)cn3)cc2)n1` [Compound 301, 3-{6-[4-(5-Amino-pyrazin-2-yl)-phenoxy]-pyrazin-2-ylamino}-propionamide] displayed an IC50 of 1000 to 10000 nM.
